Experimental findings from patent US12421240B2, “Hydropyrazino[1,2-d][1,4]diazepine compounds for the treatment of autoimmune disease” (Hoffmann-La Roche Inc., priority 2019, dated 2025) are described below.

SMILES strings stand for the structures.

The target in this assay is T1, human TLR7 (Homo sapiens, UniProt Q9NYK1).
T1 sequence (Q9NYK1 27-1049): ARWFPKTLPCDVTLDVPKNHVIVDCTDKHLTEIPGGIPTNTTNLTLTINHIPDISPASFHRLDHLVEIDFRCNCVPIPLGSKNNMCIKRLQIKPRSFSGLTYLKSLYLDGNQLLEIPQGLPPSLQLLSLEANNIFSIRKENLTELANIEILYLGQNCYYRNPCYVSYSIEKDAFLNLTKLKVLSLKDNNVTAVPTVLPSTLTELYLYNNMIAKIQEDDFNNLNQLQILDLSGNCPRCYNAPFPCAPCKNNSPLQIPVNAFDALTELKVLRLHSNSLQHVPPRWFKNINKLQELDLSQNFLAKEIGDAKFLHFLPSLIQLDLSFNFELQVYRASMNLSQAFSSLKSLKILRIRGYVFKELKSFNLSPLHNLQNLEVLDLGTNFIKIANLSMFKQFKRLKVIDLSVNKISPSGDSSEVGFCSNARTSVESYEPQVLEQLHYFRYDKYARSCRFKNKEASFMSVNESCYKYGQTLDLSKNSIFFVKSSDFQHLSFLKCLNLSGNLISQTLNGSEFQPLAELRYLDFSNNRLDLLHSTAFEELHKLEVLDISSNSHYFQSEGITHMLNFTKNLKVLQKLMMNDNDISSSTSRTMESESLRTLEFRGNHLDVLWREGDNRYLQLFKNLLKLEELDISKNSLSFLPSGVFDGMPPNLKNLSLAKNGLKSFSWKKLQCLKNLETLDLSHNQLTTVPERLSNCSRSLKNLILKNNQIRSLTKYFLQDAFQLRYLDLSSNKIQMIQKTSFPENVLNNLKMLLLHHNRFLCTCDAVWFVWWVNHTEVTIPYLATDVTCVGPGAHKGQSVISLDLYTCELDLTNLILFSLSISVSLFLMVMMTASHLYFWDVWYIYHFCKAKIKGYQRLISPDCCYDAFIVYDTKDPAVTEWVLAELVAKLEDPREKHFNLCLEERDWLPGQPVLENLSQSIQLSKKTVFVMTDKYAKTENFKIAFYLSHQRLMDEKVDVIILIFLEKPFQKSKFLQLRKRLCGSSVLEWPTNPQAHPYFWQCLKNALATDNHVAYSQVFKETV
Nature of the assay: HEK293-Blue-hTLR-7 cells assay (SEAP reporter, R848 stimulation). Type of assay: cell-based. To be noted: HEK293-Blue-hTLR7 cells, R848 ligand, 20 hrs; read-out: HEK/hTLR7 IC50. The method, then: The following tests were carried out in order to determine the activity of the compounds of formula (I), (Ia) or (Ib) in HEK293-Blue-hTLR-7/8/9 cells assay.
HEK293-Blue-hTLR-7 Cells Assay:
A stable HEK293-Blue-hTLR-7 cell line was purchased from InvivoGen (Cat. #: hkb-htlr7, San Diego, California, USA). These cells were originally designed for studying the stimulation of human TLR7 by monitoring the activation of NF-κB. A SEAP (secreted embryonic alkaline phosphatase) reporter gene was placed under the control of the IFN-β minimal promoter fused to five NF-κB and AP-1-binding sites. The SEAP was induced by activating NF-κB and AP-1 via stimulating HEK-Blue hTLR7 cells with TLR7 ligands. Therefore the reporter expression was declined by TLR7 antagonist under the stimulation of a ligand, such as R848 (Resiquimod), for incubation of 20 hrs. The cell culture supernatant SEAP reporter activity was determined using QUANTI-Blue™ kit (Cat. #: rep-qb1, Invivogen, San Diego, Ca., USA) at a wavelength of 640 nm, a detection medium that turns purple or blue in the presence of alkaline phosphatase.
HEK293-Blue-hTLR7 cells were incubated at a density of 250,000-450,000 cells/mL in a volume of 170 μL in a 96-well plate in Dulbecco's Modified Eagle's medium (DMEM) containing 4.5 g/L glucose, 50 U/mL penicillin, […], […], 2 mM L-glutamine, 10% (v/v) heat-inactivated fetal bovine serum with addition of 20 μL test compound in a serial dilution in the presence of final DMSO at 1% and 10 μL of 20 uM R848 in above DMEM, perform incubation under 37° C. in a CO2 incubator for 20 hrs. Then 20 μL of the supernatant from each well was incubated with 180 μL Quanti-blue substrate solution at 37° C. for 2 hrs and the absorbance was read at 620655 nm using a spectrophotometer. The signaling pathway that TLR7 activation leads to downstream NF-κB activation has been widely accepted, and therefore similar reporter assay was modified for evaluating TLR7 antagonist.
Turning to `C[C@@H]1CN(c2ccc(C#N)c3ncccc23)C[C@@H]2CCN(c3ccc4c(n3)CNCC4)CCN21` [Example 5, 5-[(4R,10aS)-4-methyl-8-(5,6,7,8-tetrahydro-1,7-naphthyridin-2-yl)-1,3,4,6,7,9,10,10a-octahydropyrazino[1,2-d][1,4]diazepin-2-yl]quinoline-8-carbonitrile], the IC50 stood at 38.5 nM. Under `C[C@@H]1CN(c2ccc(C#N)c3ncccc23)C[C@@H]2CCN(Cc3ccc(N4CCNCC4)cn3)CCN21` [Example 19, 5-[(4R,10aS)-4-methyl-8-[(5-piperazin-1-yl-2-pyridyl)methyl]-1,3,4,6,7,9,10,10a-octahydropyrazino[1,2-d][1,4]diazepin-2-yl]quinoline-8-carbonitrile] stands 4.8 nM. Under `C[C@@H]1CN(c2ccc(C#N)c3ncccc23)C[C@@H]2CCN(c3cncc4c3CCNC4)CCN21` [Example 4, 5-[(4R,10aS)-4-methyl-8-(5,6,7,8-tetrahydro-2,7-naphthyridin-4-yl)-1,3,4,6,7,9,10,10a-octahydropyrazino[1,2-d][1,4]diazepin-2-yl]quinoline-8-carbonitrile] stands 17.8 nM; under `C[C@@H]1CN(c2cc(=O)n(C)c3ncccc23)C[C@@H]2CCN(Cc3ccc4c(c3)CNCC4)CCN21` [Example 28, 4-[(4R,10aS)-4-methyl-8-(1,2,3,4-tetrahydroisoquinolin-7-ylmethyl)-1,3,4,6,7,9,10,10a-octahydropyrazino[1,2-d][1,4]diazepin-2-yl]-1-methyl-1,8-naphthyridin-2-one], 36.3 nM; under `C[C@@H]1CN(c2ccc(C#N)c3ncccc23)C[C@@H]2CCN(Cc3ccc4c(c3)CNCC4)CCN21` [Example 12, 5-[(4R,10aS)-4-methyl-8-(1,2,3,4-tetrahydroisoquinolin-7-ylmethyl)-1,3,4,6,7,9,10,10a-octahydropyrazino[1,2-d][1,4]diazepin-2-yl]quinoline-8-carbonitrile], 4.5 nM. Under `C[C@@H]1CN(c2ccc(C#N)c3ncccc23)C[C@@H]2CCN(c3ccc4c(n3)CCNC4)CCN21` [Example 6, 5-[(4R,10aS)-4-methyl-8-(5,6,7,8-tetrahydro-1,6-naphthyridin-2-yl)-1,3,4,6,7,9,10,10a-octahydropyrazino[1,2-d][1,4]diazepin-2-yl]quinoline-8-carbonitrile] stands 48.1 nM; under `C[C@@H]1CN(c2ccc(C#N)c3ncccc23)C[C@@H]2CCN(Cc3cncc(N4CCNCC4)c3)CCN21` [Example 16, 5-[(4R,10aS)-4-methyl-8-[(5-piperazin-1-yl-3-pyridyl)methyl]-1,3,4,6,7,9,10,10a-octahydropyrazino[1,2-d][1,4]diazepin-2-yl]quinoline-8-carbonitrile], 11.1 nM; under `C[C@@H]1CN(c2ccc(C#N)c3ncccc23)C[C@@H]2CCN(c3ccc([C@H]4CNCCO4)cc3)CCN21` [Example 3, 5-[(4R,10aS)-4-methyl-8-[4-[(2S)-morpholin-2-yl]phenyl]-1,3,4,6,7,9,10,10a-octahydropyrazino[1,2-d][1,4]diazepin-2-yl]quinoline-8-carbonitrile], 54 nM.

With `CO[C@@H]1CN(c2cnc(CN3CC[C@H]4CN(c5ccc(C#N)c6ncccc56)C[C@@H](C)N4CC3)c(F)c2)C[C@H]1N` [Example 24, 5-[(4R,10aS)-8-[[5-[(3R,4R)-3-amino-4-methoxy-pyrrolidin-1-yl]-3-fluoro-2-pyridyl]methyl]-4-methyl-1,3,4,6,7,9,10,10a-octahydropyrazino[1,2-d][1,4]diazepin-2-yl]quinoline-8-carbonitrile], the IC50 turned out to be 3.2 nM. The value for `C[C@@H]1CN(c2ccc(C#N)c3ncccc23)C[C@@H]2CCN(Cc3cnc4c(c3)CNCC4)CCN21` [Example 10, 5-[(4R,10aS)-4-methyl-8-(5,6,7,8-tetrahydro-1,6-naphthyridin-3-ylmethyl)-1,3,4,6,7,9,10,10a-octahydropyrazino[1,2-d][1,4]diazepin-2-yl]quinoline-8-carbonitrile] was 9.3 nM; that for `C[C@@H]1CN(c2ccc(C#N)c3ncccc23)C[C@@H]2CCN(Cc3ccc4c(c3)CCNC4)CCN21` [Example 11, 5-[(4R,10aS)-4-methyl-8-(1,2,3,4-tetrahydroisoquinolin-6-ylmethyl)-1,3,4,6,7,9,10,10a-octahydropyrazino[1,2-d][1,4]diazepin-2-yl]quinoline-8-carbonitrile] was 6.1 nM; that for `CO[C@@H]1CN(c2cnc(CN3CC[C@H]4CN(c5ccc(C#N)n6ncc(F)c56)C[C@@H](C)N4CC3)c(F)c2)C[C@H]1N` [Example 27, 4-[(4R,10aS)-8-[[5-[(3R,4R)-3-amino-4-methoxy-pyrrolidin-1-yl]-3-fluoro-2-pyridyl]methyl]-4-methyl-1,3,4,6,7,9,10,10a-octahydropyrazino[1,2-d][1,4]diazepin-2-yl]-3-fluoro-pyrazolo[1,5-a]pyridine-7-carbonitrile] was 8.5 nM. Under `C[C@@H]1CN(c2ccc(C#N)c3ncccc23)C[C@@H]2CCN(Cc3ccc(N4C[C@@H](N)[C@@H](F)C4)cn3)CCN21` [Example 20, 5-[(4R,10aS)-8-[[5-[(3R,4S)-3-amino-4-fluoro-pyrrolidin-1-yl]-2-pyridyl]methyl]-4-methyl-1,3,4,6,7,9,10,10a-octahydropyrazino[1,2-d][1,4]diazepin-2-yl]quinoline-8-carbonitrile] stands 1.6 nM; under `C[C@@H]1CN(c2ccc(C#N)c3ncccc23)C[C@@H]2CCN(Cc3cnc(N4CCNCC4)nc3)CCN21` [Example 14, 5-[(4R,10aS)-4-methyl-8-[(2-piperazin-1-ylpyrimidin-5-yl)methyl]-1,3,4,6,7,9,10,10a-octahydropyrazino[1,2-d][1,4]diazepin-2-yl]quinoline-8-carbonitrile], 1.8 nM; under `CO[C@@H]1CN(c2ccc(CN3CC[C@H]4CN(c5ccc(C#N)c6ncccc56)C[C@@H](C)N4CC3)nc2)C[C@H]1N` [Example 22, 5-[(4R,10aS)-8-[[5-[(3R,4R)-3-amino-4-methoxy-pyrrolidin-1-yl]-2-pyridyl]methyl]-4-methyl-1,3,4,6,7,9,10,10a-octahydropyrazino[1,2-d][1,4]diazepin-2-yl]quinoline-8-carbonitrile], 4.9 nM. In the case of `C[C@@H]1CN(c2ccc(C#N)c3ncccc23)C[C@@H]2CCN(Cc3cnc(N4CCNCC4)cn3)CCN21` [Example 15, 5-[(4R,10aS)-4-methyl-8-[(5-piperazin-1-ylpyrazin-2-yl)methyl]-1,3,4,6,7,9,10,10a-octahydropyrazino[1,2-d][1,4]diazepin-2-yl]quinoline-8-carbonitrile], the IC50 came out at 2.2 nM. The value for `C[C@@H]1CN(c2ccc(C#N)c3ncccc23)C[C@@H]2CCN(Cc3ncc(N4CCNCC4)cn3)CCN21` [Example 13, 5-[(4R,10aS)-4-methyl-8-[(5-piperazin-1-ylpyrimidin-2-yl)methyl]-1,3,4,6,7,9,10,10a-octahydropyrazino[1,2-d][1,4]diazepin-2-yl]quinoline-8-carbonitrile] was 49.6 nM.
